From the NIST ThermoML archive (doi:10.1016/j.jct.2012.07.007)

Experiments:
[1] = xn = mol fraction of the nth substance listed; settings: 101 kPa, Liquid; for speed of sound: Linear variable-path acoustic interferometer; for mass density: Vibrating tube method
[2] = excess molar enthalpy (molar enthalpy of mixing); xn = mol fraction of the nth substance listed; settings: 298.15 K, 101 kPa, Liquid, 2-drop calorimetry

Cc1cccnc1 [3-methylpyridine] + CCn1cc[n+](C)c1.F[B-](F)(F)F
[1]
Settings	mass density, 293.15 K [kg/m3]	mass density, 298.15 K [kg/m3]	mass density, 303.15 K [kg/m3]	mass density, 308.15 K [kg/m3]	speed of sound, 293.15 K [m/s]	speed of sound, 298.15 K [m/s]	speed of sound, 303.15 K [m/s]	speed of sound, 308.15 K [m/s]
x2 = 0.1217	1024.56	1020.46	1016.63	1011.73	1479.9	1465	1443.4	1427
x2 = 0.1729	1050.57	1046.54	1042.83	1038.13	1494.7	1480.8	1459.7	1443.9
x2 = 0.2415	1082.96	1079.02	1075.3	1070.72	1514	1499.7	1481.3	1465.7
x2 = 0.2711	1096.07	1092.1	1088.37	1084.01	1521.8	1507.9	1490.3	1474.6
x2 = 0.3214	1117.16	1113.25	1109.49	1105.3	1535.6	1520.5	1504.5	1488.8
x2 = 0.3732	1137.38	1133.44	1129.62	1125.73	1548.8	1532.8	1519.4	1503.3
x2 = 0.4219	1154.95	1151.03	1147.27	1143.6	1560.1	1543.2	1532.2	1517
x2 = 0.4718	1171.59	1167.7	1163.94	1160.52	1571.8	1554.4	1544.1	1530
x2 = 0.5209	1186.68	1182.83	1179.2	1175.87	1581.6	1564	1556	1541.8
x2 = 0.5723	1201.17	1197.38	1193.82	1190.64	1591.9	1574.7	1566.4	1554.1
x2 = 0.6221	1214.02	1210.25	1206.88	1203.74	1600.3	1583.7	1576.1	1565.4
x2 = 0.6731	1226.02	1222.36	1219.18	1215.94	1607.5	1593	1585.5	1576.2
x2 = 0.7212	1236.43	1232.83	1229.78	1226.48	1614.1	1601.4	1592.8	1585.3
x2 = 0.7708	1246.34	1242.76	1239.81	1236.4	1619.1	1608.8	1598.7	1593.7
x2 = 0.8224	1255.77	1252.24	1249.34	1245.81	1623.7	1614.9	1604.2	1599.5
x2 = 0.8713	1264.1	1260.53	1257.58	1253.89	1627.2	1619.3	1607.5	1603
x2 = 0.9119	1270.62	1266.99	1263.93	1260.07	1629	1621.6	1609	1603.9
x2 = 0.9317	1273.7	1270	1266.86	1262.91	1629.8	1621.8	1609.2	1603.2

[2]
Settings	excess molar enthalpy [kcal/mol]
x2 = 0.1256	-0.0325
x2 = 0.1676	-0.0409
x2 = 0.2089	-0.0491
x2 = 0.2578	-0.0586
x2 = 0.2976	-0.0651
x2 = 0.3387	-0.0702
x2 = 0.3898	-0.0766
x2 = 0.4367	-0.0814
x2 = 0.4876	-0.0864
x2 = 0.5223	-0.0882
x2 = 0.599	-0.0898
x2 = 0.6345	-0.089
x2 = 0.689	-0.0861
x2 = 0.7356	-0.081
x2 = 0.7909	-0.0713
x2 = 0.8479	-0.0582
x2 = 0.889	-0.047
x2 = 0.9109	-0.0393

c1ccncc1 [pyridine] + CCn1cc[n+](C)c1.F[B-](F)(F)F
[1]
Settings	mass density, 293.15 K [kg/m3]	mass density, 298.15 K [kg/m3]	mass density, 303.15 K [kg/m3]	mass density, 308.15 K [kg/m3]	speed of sound, 293.15 K [m/s]	speed of sound, 298.15 K [m/s]	speed of sound, 303.15 K [m/s]	speed of sound, 308.15 K [m/s]
x2 = 0.1225	1057.86	1053.89	1049.31	1044.82	1486.4	1466.7	1450.1	1431.5
x2 = 0.1781	1085.74	1081.91	1077.49	1073.08	1504.8	1486.7	1470.9	1453.6
x2 = 0.2349	1111.05	1107.24	1102.93	1098.58	1521.5	1505.5	1489.4	1473.3
x2 = 0.2787	1128.56	1124.75	1120.49	1116.15	1533.4	1517.7	1502.2	1487.6
x2 = 0.3215	1144.24	1140.37	1136.25	1131.85	1544	1528.8	1513.9	1499.2
x2 = 0.3716	1160.99	1156.91	1152.96	1148.63	1555.6	1541.1	1525	1512.2
x2 = 0.4229	1176.47	1172.38	1168.48	1164.16	1565.7	1550.9	1536.1	1523.5
x2 = 0.4723	1189.98	1185.87	1182.12	1177.75	1574	1560.4	1544.5	1533.1
x2 = 0.5213	1202.28	1198.15	1194.47	1190.17	1582.4	1568.3	1552.8	1541.1
x2 = 0.5731	1214.14	1209.97	1206.44	1202.2	1589.6	1575.5	1561.4	1549.5
x2 = 0.6212	1224.23	1220.11	1216.67	1212.48	1596.2	1582.6	1568.1	1557.4
x2 = 0.6719	1234.08	1230	1226.63	1222.55	1603.2	1589.2	1575.5	1564.3
x2 = 0.7224	1243.17	1239.16	1235.85	1231.85	1609.3	1595.2	1583.1	1571.5
x2 = 0.7737	1251.76	1247.81	1244.54	1240.61	1615.2	1601.3	1589.7	1578.5
x2 = 0.8219	1259.31	1255.42	1252.16	1248.26	1619.9	1607	1595.8	1584.8
x2 = 0.8764	1267.33	1263.49	1260.17	1256.28	1625.1	1612.2	1602	1590.5
x2 = 0.9223	1273.71	1269.86	1266.47	1262.53	1628.2	1616	1605.5	1594
x2 = 0.9349	1275.41	1271.55	1268.13	1264.16	1628.9	1616.8	1606.2	1594.8

[2]
Settings	excess molar enthalpy [kcal/mol]
x2 = 0.1025	-0.0352
x2 = 0.1335	-0.0449
x2 = 0.1727	-0.0555
x2 = 0.2121	-0.067
x2 = 0.2654	-0.0785
x2 = 0.3078	-0.087
x2 = 0.3587	-0.0968
x2 = 0.4112	-0.101
x2 = 0.4632	-0.107
x2 = 0.4956	-0.108
x2 = 0.5325	-0.108
x2 = 0.589	-0.106
x2 = 0.6312	-0.1
x2 = 0.6983	-0.091
x2 = 0.7567	-0.0806
x2 = 0.8078	-0.0667
x2 = 0.8654	-0.0505
x2 = 0.9123	-0.0344
